# US10047096B2, “Substituted pyridobenzodiazepinone-derivatives and use thereof” (Bayer Pharma Aktiengesellschaft, priority 2014, dated 2018)
# Structures can show the parent of a compound that is named as a salt.
# Target: human PDGFRβ (Homo sapiens (Human), UniProt P09619)
# Assay: PDGFRβ kinase assay (PDGFRβ-HTRF)
# Assay type: biochemical
# Settings: 10 μM ATP; some mean values from multiple determinations
# Outline: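 GST-fused human PDGFRβ fragment (R561-L1106) from Sf9 cells was preincubated 15 min with compound in 50 mM HEPES pH 7.5, 10 mM MgCl2, 2.5 mM DTT, 0.01% Triton X-100; substrate was biotinylated poly-Glu,Tyr (4:1).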
# Chain of human PDGFRβ (P09619 561-1106): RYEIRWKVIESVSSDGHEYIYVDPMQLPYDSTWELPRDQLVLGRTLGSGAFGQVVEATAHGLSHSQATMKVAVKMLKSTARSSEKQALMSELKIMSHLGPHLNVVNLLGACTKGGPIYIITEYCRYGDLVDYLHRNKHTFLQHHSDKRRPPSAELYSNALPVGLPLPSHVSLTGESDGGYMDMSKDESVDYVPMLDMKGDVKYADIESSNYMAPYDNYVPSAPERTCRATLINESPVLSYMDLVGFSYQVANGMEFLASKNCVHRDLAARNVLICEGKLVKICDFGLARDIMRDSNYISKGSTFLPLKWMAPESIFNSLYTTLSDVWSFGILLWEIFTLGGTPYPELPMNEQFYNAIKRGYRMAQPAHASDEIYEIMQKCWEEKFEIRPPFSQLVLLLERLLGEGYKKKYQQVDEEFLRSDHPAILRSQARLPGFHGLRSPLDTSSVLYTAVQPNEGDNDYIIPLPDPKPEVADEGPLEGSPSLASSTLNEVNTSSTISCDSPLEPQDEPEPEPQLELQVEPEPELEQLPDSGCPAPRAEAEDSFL
row,SMILES,IC50
1,Cc1ccc(O)cc1Nc1ccnc2c1C(=O)Nc1cc(CNCCC(=O)N(C)C)ccc1N2 [Example 143],5.55 nM
2,Cc1ccc(O)cc1Nc1ccnc2c1C(=O)Nc1cc(CNCC(C)(C)N(C)C)ccc1N2 [Example 144],7.72 nM
3,Cc1ccc(O)cc1Nc1ccnc2c1C(=O)Nc1cc(CNCc3ccccc3)ccc1N2 [Example 145],5.82 nM
4,Cc1ccc(O)cc1Nc1ccnc2c1C(=O)Nc1cc(CNCc3cccnc3)ccc1N2 [Example 146],7.56 nM
5,Cc1ccc(O)cc1Nc1ccnc2c1C(=O)Nc1cc(CNc3ccccc3F)ccc1N2 [Example 147],52.9 nM
6,Cc1ccc(O)cc1Nc1ccnc2c1C(=O)Nc1cc(CNCC(C)C)ccc1N2 [Example 152],4.42 nM
7,"Cc1cc(F)c(Nc2ccnc3c2C(=O)Nc2cc(C(=O)N4C[C@H](O)C[C@H]4CO)ccc2N3)cc1O [Example 160, 4-[(2-Fluoro-5-hydroxy-4-methylphenyl)amino]-8-{[(2S,4R)-4-hydroxy-2-(hydroxymethyl)pyrrolidin-1-yl]carbonyl}-6,11-dihydro-5H-pyrido[2,3-b][1,5]benzodiazepin-5-one]",7.25 nM
8,"Cc1cc(F)c(Nc2ccnc3c2C(=O)Nc2cc(C(=O)N4CCC(CCO)CC4)ccc2N3)cc1O [Example 161, 4-[(2-Fluoro-5-hydroxy-4-methylphenyl)amino]-8-{[4-(2-hydroxyethyl)piperidin-1-yl]carbonyl}-6,11-dihydro-5H-pyrido[2,3-b][1,5]benzodiazepin-5-one]",10.7 nM
9,"Cc1cc(F)c(Nc2ccnc3c2C(=O)Nc2cc(CN4CC5CC5C4CO)ccc2N3)cc1O (stereo not drawn) [Example 164, 4-[(2-Fluoro-5-hydroxy-4-methylphenyl)amino]-8-{[cis-2-(hydroxymethyl)-3-azabicyclo[3.1.0]hex-3-yl]methyl}-6,11-dihydro-5H-pyrido[2,3-b][1,5]benzodiazepin-5-one]",3.71 nM
10,"CC[C@@H](C)[C@@H](CO)NCc1ccc2c(c1)NC(=O)c1c(Nc3cc(O)c(C)cc3F)ccnc1N2 [Example 172, 4-[(2-Fluoro-5-hydroxy-4-methylphenyl)amino]-8-({[(2S,3R)-1-hydroxy-3-methylpentan-2-yl]amino}methyl)-6,11-dihydro-5H-pyrido[2,3-b][1,5]benzodiazepin-5-one]",4.11 nM
11,"Cc1cc(F)c(Nc2ccnc3c2C(=O)Nc2cc(CN[C@@H](CO)C(N)=O)ccc2N3)cc1O [Example 173, N^2-({4-[(2-Fluoro-5-hydroxy-4-methylphenyl)amino]-5-oxo-6,11-dihydro-5H-pyrido[2,3-b][1,5]benzodiazepin-8-yl}methyl)-L-serinamide]",4.41 nM
12,"Cc1cc(F)c(Nc2ccnc3c2C(=O)Nc2cc(C(=O)N4CCC(O)CC4)ccc2N3)cc1O [Example 178, 4-[(2-Fluoro-5-hydroxy-4-methylphenyl)amino]-8-[(4-hydroxypiperidin-1-yl)carbonyl]-6,11-dihydro-5H-pyrido[2,3-b][1,5]benzodiazepin-5-one]",14.8 nM
13,"COCCOCCOCCOCCOCCOCCOCCOCCNCc1ccc2c(c1)NC(=O)c1c(Nc3cc(O)c(C)cc3F)ccnc1N2 [Example 185, 4-[(2-Fluoro-5-hydroxy-4-methylphenyl)amino]-8-(2,5,8,11,14,17,20,23-octaoxa-26-azaheptacosan-27-yl)-6,11-dihydro-5H-pyrido[2,3-b][1,5]benzodiazepin-5-one]",25 nM
14,"Cc1cc(F)c(Nc2ccnc3c2C(=O)Nc2cc(CN4CC(=O)N(C(C)C)C(C)(C)C4)ccc2N3)cc1O [Example 196, 4-[(2-Fluoro-5-hydroxy-4-methylphenyl)amino]-8-[(4-isopropyl-3,3-dimethyl-5-oxopiperazin-1-yl)methyl]-6,11-dihydro-5H-pyrido[2,3-b][1,5]benzodiazepin-5-one]",9.38 nM

# More lines, now with the values ahead:
row,IC50,SMILES
1,1.52 nM,Cc1ccc(O)cc1Nc1ccnc2c1C(=O)Nc1cc(CNCC(O)CO)ccc1N2 (stereo not drawn) [Example 148]
2,1.74 nM,Cc1ccc(O)cc1Nc1ccnc2c1C(=O)Nc1cc(CNCCCOC(C)C)ccc1N2 [Example 149]
3,3.71 nM,Cc1ccc(O)cc1Nc1ccnc2c1C(=O)Nc1cc(CNC3CC3)ccc1N2 [Example 151]
4,3.61 nM,CCC(C)CNCc1ccc2c(c1)NC(=O)c1c(Nc3cc(O)ccc3C)ccnc1N2 (stereo not drawn) [Example 153]
5,2.1 nM,Cc1ccc(O)cc1Nc1ccnc2c1C(=O)Nc1cc(CNC3CCCC3)ccc1N2 [Example 154]
6,2.33 nM,CCC(CC)NCc1ccc2c(c1)NC(=O)c1c(Nc3cc(O)ccc3C)ccnc1N2 [Example 155]
7,3.31 nM,Cc1ccc(O)cc1Nc1ccnc2c1C(=O)Nc1cc(CNCCN(C)C)ccc1N2 [Example 156]
8,3.4 nM,Cc1ccc(O)cc1Nc1ccnc2c1C(=O)Nc1cc(CNC(C)C(C)C)ccc1N2 (stereo not drawn) [Example 157]
9,1.31 nM,"Cc1cc(F)c(Nc2ccnc3c2C(=O)Nc2cc(CNCCO)ccc2N3)cc1O [Example 167, 4-[(2-Fluoro-5-hydroxy-4-methylphenyl)amino]-8-{[(2-hydroxyethyl)amino]methyl}-6,11-dihydro-5H-pyrido[2,3-b][1,5]benzodiazepin-5-one]"
10,1.26 nM,"O=C1Nc2cc(CN3CCC(O)CC3)ccc2Nc2nccc(Nc3cc(O)c(Cl)cc3F)c21 [Example 175, 4-[(4-Chloro-2-fluoro-5-hydroxyphenyl)amino]-8-[(4-hydroxypiperidin-1-yl)methyl]-6,11-dihydro-5H-pyrido[2,3-b][1,5]benzodiazepin-5-one]"
11,3.45 nM,"Cc1cc(F)c(Nc2ccnc3c2C(=O)Nc2cc(CNC[C@@H]4CCN(C(=O)OC(C)(C)C)C[C@H]4O)ccc2N3)cc1O [Example 176, tert-Butyl (3S,4S)-4-{[({4-[(2-fluoro-5-hydroxy-4-methylphenyl)amino]-5-oxo-6,11-dihydro-5H-pyrido[2,3-b][1,5]benzodiazepin-8-yl}methyl)amino]methyl}-3-hydroxypiperidine-1-carboxylate]"
12,2.43 nM,"Cc1cc(F)c(Nc2ccnc3c2C(=O)Nc2cc(C(=O)N[C@H]4CC[C@H](O)CC4)ccc2N3)cc1O [Example 180, 4-[(2-Fluoro-5-hydroxy-4-methylphenyl)amino]-N-(trans-4-hydroxycyclohexyl)-5-oxo-6,11-dihydro-5H-pyrido[2,3-b][1,5]benzodiazepine-8-carboxamide]"
13,1.2 nM,"Cc1cc(F)c(Nc2ccnc3c2C(=O)Nc2cc(CN4CCC5(O)CCCCC5C4)ccc2N3)cc1O (stereo not drawn) [Example 183, 4-[(2-Fluoro-5-hydroxy-4-methylphenyl)amino]-8-[(4a-hydroxyoctahydroisoquinolin-2(1H)-yl)methyl]-6,11-dihydro-5H-pyrido[2,3-b][1,5]benzodiazepin-5-one]"
14,1.62 nM,"Cc1cc(F)c(Nc2ccnc3c2C(=O)Nc2cc(CN[C@@H](CO)Cc4cnc[nH]4)ccc2N3)cc1O [Example 184, 4-[(2-Fluoro-5-hydroxy-4-methylphenyl)amino]-8-({[(2R)-1-hydroxy-3-(1H-imidazol-5-yl)propan-2-yl]amino}methyl)-6,11-dihydro-5H-pyrido[2,3-b][1,5]benzodiazepin-5-one]"
15,1.75 nM,"Cc1cc(F)c(Nc2ccnc3c2C(=O)Nc2cc(CNC4CCC4)ccc2N3)cc1O [Example 188, 8-[(Cyclobutylamino)methyl]-4-[(2-fluoro-5-hydroxy-4-methylphenyl)amino]-6,11-dihydro-5H-pyrido[2,3-b][1,5]benzodiazepin-5-one]"
16,2.01 nM,"Cc1cc(F)c(Nc2ccnc3c2C(=O)Nc2cc(CNC4CC(F)(F)C4)ccc2N3)cc1O [Example 189, 8-{[(3,3-Difluorocyclobutyl)amino]methyl}-4-[(2-fluoro-5-hydroxy-4-methylphenyl)amino]-6,11-dihydro-5H-pyrido[2,3-b][1,5]benzodiazepin-5-one]"
17,1.22 nM,"Cc1cc(F)c(Nc2ccnc3c2C(=O)Nc2cc(CNC4CC(OC(C)C)C4)ccc2N3)cc1O (stereo not drawn) [Example 190, 4-[(2-Fluoro-5-hydroxy-4-methylphenyl)amino]-8-{[(3-isopropoxycyclobutyl)amino]methyl}-6,11-dihydro-5H-pyrido[2,3-b][1,5]benzodiazepin-5-one]"
18,0.626 nM,"CCOC(=O)[C@H]1C[C@@H](NCc2ccc3c(c2)NC(=O)c2c(Nc4cc(O)c(C)cc4F)ccnc2N3)C1 [Example 191, cis-Ethyl 3-[({4-[(2-fluoro-5-hydroxy-4-methylphenyl)amino]-5-oxo-6,11-dihydro-5H-pyrido[2,3-b][1,5]benzodiazepin-8-yl}methyl)amino]cyclobutanecarboxylate]"
19,1.61 nM,"CCOC(=O)[C@H]1C[C@H](NCc2ccc3c(c2)NC(=O)c2c(Nc4cc(O)c(C)cc4F)ccnc2N3)C1 [Example 192, trans-Ethyl 3-[({4-[(2-fluoro-5-hydroxy-4-methylphenyl)amino]-5-oxo-6,11-dihydro-5H-pyrido[2,3-b][1,5]benzodiazepin-8-yl}methyl)amino]cyclobutanecarboxylate]"
20,1.56 nM,"Cc1cc(F)c(Nc2ccnc3c2C(=O)Nc2cc(CN[C@H]4C[C@H](C(=O)O)C4)ccc2N3)cc1O [Example 195, trans-3-[({4-[(2-Fluoro-5-hydroxy-4-methylphenyl)amino]-5-oxo-6,11-dihydro-5H-pyrido[2,3-b][1,5]benzodiazepin-8-yl}methyl)amino]cyclobutanecarboxylic acid]"
21,0.861 nM,"Cc1cc(F)c(Nc2ccnc3c2C(=O)Nc2cc(CN4CCNCC4)ccc2N3)cc1O [Example 197, 4-[(2-Fluoro-5-hydroxy-4-methylphenyl)amino]-8-(piperazin-1-ylmethyl)-6,11-dihydro-5H-pyrido[2,3-b][1,5]benzodiazepin-5-one]"

# Same assay, conditions: 10 μM ATP; some mean values from multiple determinations; hydrochloride
row,IC50,SMILES
1,3.22 nM,"CCN(CC)Cc1ccc2c(c1)NC(=O)c1c(Nc3cc(O)c(C)cc3F)ccnc1N2 [Example 193, 8-[(Diethylamino)methyl]-4-[(2-fluoro-5-hydroxy-4-methylphenyl)amino]-6,11-dihydro-5H-pyrido[2,3-b][1,5]benzodiazepin-5-one hydrochloride]"
